Experimental data reported in US7964596B2, “Therapeutic compounds” (Allergan, Inc., priority 2008, dated 2011).
“Also recorded” adds a separate entry of the source.

System: lashes and adjacent hairs of patients having glaucoma
Test: Observation of lashes and adjacent hairs in glaucoma patients treated in only one eye
Assay type: in vivo, human
Details: glaucoma patients taking the drug in only one eye; gross inspection and slit lamp biomicroscope
From the text: In the course of treating patients having glaucoma, treatment may only be appropriate in one eye. […] The lash appearance on the lids of the treated eyes would have appeared quite attractive if it represented a bilateral phenomenon. As a result of its asymmetric nature, the long lashes on one side could be construed as disturbing from a cosmetic standpoint. A systemic examination was preformed as a result of the asymmetric phenomenon. It soon became apparent that this altered appearance was not an isolated finding. […] Definite differences could be identified to varying degrees in the lashes and adjacent hairs of all patients who were taking the drug on a unilateral basis for longer than 6 months.
The changes in the lashes were apparent on gross inspection in several patients once attention was focused on the issue. In those with light colored hair and lashes, the differences were only seen easily with the aid of the high magnification and lighting capabilities of the slit lamp biomicroscope. In the course of glaucoma follow-up examination, attention is generally immediately focused on the eye itself. As a result of the high power magnification needed only one eye is seen at a time and the eye is seen at a high enough power that the lashes are not in focus. […]

CCNC(=O)CCC/C=C\C[C@@H]1[C@@H](/C=C/[C@@H](O)CCc2ccccc2)[C@H](O)C[C@@H]1O [bimatoprost]
lash / hair growth in treated eye versus non-treated eye: longer, thicker, and fuller in the treated eye than in the non-treated eye; also recorded: hair growth is stimulated
